From patent US4480118A, “Carboxylic acid ester and an insecticidal and/or acaricidal composition containing the same” (priority 1981, dated 1984)
In brackets after ≈: the same amount, converted by molar mass. Like-named read-outs stand apart in the source and are kept apart here.

Tests used:
tobacco cutworm = assay: Insecticidal activity against tobacco cutworm; assay type: in vivo; settings: 24 h
Experimental: An artificial diet (15 g) for tobacco cutworm was wet with 2 ml of the prescribed aqueous dilution of an emulsifiable concentrate obtained in Preparation Example 2 or of that obtained from reference compounds. The diet thus treated was placed in a polyethylene cup of 11 cm in diameter.

housefly [1] = assay: Insecticidal activity against housefly (Topical application method); assay type: in vivo; settings: dorsal thorax, adult female, 24 hours
Experimental: The present compounds and the reference compounds were diluted with acetone to prescribed concentrations. Each 0.5 μl of the diluted samples was applied topically with a microsyringe onto the dorsal thorax of an adult female housefly. The flies were fed and observed for the number of dead and alive insects after 24 hours. LD50 (median lethal dose) was calculated from the mortalities at each dosage by probit method.

housefly [2] = assay: Activity of oil spray against adult housefly (glass chamber); assay type: in vivo; settings: oil spray 0.5 ml, 10 minutes exposure; for mortality, House fly: observed on the following day, 1440 min
Experimental: (§1) 0.1 Part of each compound Nos. 10, 12, 15, 17, 18, 19, 22, 23 and 29 of this invention is dissolved in deodorized kerosene and made up to 100 parts with kerosene to obtain an oil spray.
(§2) Ten adult houseflies and ten adult female northern house mosquitos were released in a glass chamber, 70×70×70 cm in size. An oil spray preparation (0.5 ml) obtained in Preparation Example 1 was sprayed inside the chamber and the insects were exposed to the descending mist for 10 minutes, during which time the number of knocked-down insects was counted at predetermined time intervals to determine the 50% knockdown time (KT50). On the following day, the dead and alive insects were observed.

housefly [3] = assay: Insecticidal activity against housefly (Filter paper bait and contact method); assay type: in vivo; settings: for mortality at 500 ppm: Musca domestica
Experimental: Each 20 parts of the present compounds No. 1 to No. 29, 10 parts of an emulsifier (Sorpol 3005X; trademark for Toho Chemical Co.) and 70 parts of xylene are thoroughly mixed by stirring to obtain an emulsifiable concentrate of each compound.
A piece of filter paper, 5.5 cm in diameter, was laid on the bottom of a polyethylene cup of the identical inner diameter. An emulsifiable concentrate prepared in the same manner as in Preparation Example 2 was diluted with water. To the filter paper, was added dropwise 0.7 ml of the diluted sample (500 ppm in concentration). Sucrose (30 mg) was placed on the filter paper to serve as bait. Ten adult female houseflies were released into the cup, closed with a cover, and observed for the number of dead and alive insects after 48 hours to calculate the mortality (2 replications).

northern house mosquito = assay: Activity of oil spray against adult female northern house mosquito (glass chamber); assay type: in vivo
Experimental: as §1, §2

green rice leafhopper = assay: Insecticidal activity against green rice leafhopper; settings: Nephotettix cincticeps, 24 h
[4] = read-out: LC50 (median lethal concentration)
[5] = 500 ppm, 48 hours, adult female houseflies, read-out: Mortality
[6] = northern house mosquito, in vivo, 24 h
[7] = oil spray 0.5 ml, 10 minutes exposure
[8] = read-out: Percent mortality days after spraying: 0
[9] = read-out: Percent mortality days after spraying: 3
[10] = read-out: Percent mortality days after spraying: 7
[11] = oil spray 0.5 ml, 10 minutes exposure, observed on the following day, 1440 min
[12] = read-out: LC50 (median lethal concentration), treated artificial diet, third-instar larvae, 24 hours

CC(C)=CC1C(C(=O)OCc2cccc(Oc3ccccc3)c2)C1(C)C (centres unmarked) [drawing 62, reference compound]
LC50 (tobacco cutworm; [4]): 24 µg/mL (≈ 68.5 µM)

CC(C)=CC1C(C(=O)OC(C#N)c2cccc(Oc3ccccc3)c2)C1(C)C (centres unmarked) [reference compound]
LD50 (median lethal dose) (housefly [1]): 0.079 μg/female

C#CCN1CC(=O)N(COC(=O)C2C(C)(C)C23Cc2ccccc2C3)C1=O (centres unmarked) [Compound 22]
KT50 (50% knockdown time), House fly (housefly [2]): 80 s
mortality, House fly (housefly [2]): 90%
mortality at 500 ppm (housefly [3]; [5]): 100%
mortality, Northern house mosquito (northern house mosquito; [6]): 10%
KT50 (50% knockdown time), Northern house mosquito (northern house mosquito; [7]): 344 s

CC1(C)C(C(=O)OC(C#N)c2ccc(F)c(Oc3ccccc3)c2)C12Cc1ccccc12 (centres unmarked) [Compound 20]
mortality at 500 ppm (housefly [3]; 48 h): 100%
mortality at 50 ppm (green rice leafhopper; [8]): 100%
mortality at 50 ppm (green rice leafhopper; [9]): 100%
mortality at 50 ppm (green rice leafhopper; [10]): 90%

CC1(C)[C@@H](C(=O)OC(C#N)c2cccc(Oc3ccccc3)c2)[C@]12Cc1ccccc1O2 (relative stereo) [Compound 17]
KT50 (50% knockdown time), House fly (housefly [2]): 264 s
mortality, House fly (housefly [2]): 80%
mortality at 500 ppm (housefly [3]; [5]): 100%
mortality, Northern house mosquito (northern house mosquito; [6]): 100%
KT50 (50% knockdown time), Northern house mosquito (northern house mosquito; [7]): 330 s
LD50 (median lethal dose) (housefly [1]): 0.064 μg/female

CNC(=O)Oc1cccc2ccccc12 [NAC, 1naphthyl N--methylcarbamate, reference compound]
mortality at 250 ppm (green rice leafhopper; [8]): 50%

CC1(C)C(C(=O)OC(C#N)c2cccc(Oc3ccccc3)c2)C12Cc1ccccc12 (centres unmarked) [Compound 19]
KT50 (50% knockdown time), House fly (housefly [2]): 600 s
mortality, House fly (housefly [2]): 80%
mortality at 500 ppm (housefly [3]; 48 h): 100%
KT50 (50% knockdown time), Northern house mosquito (northern house mosquito; [7]): 492 s
mortality, Northern house mosquito (northern house mosquito; [11]): 100%
LC50 (tobacco cutworm; [4]): 5 µg/mL (≈ 12.2 µM)

C#CCC=C(C)C(C#C)OC(=O)C1C(C)(C)C12Cc1ccccc1C2 (centres unmarked) [Compound 23]
KT50 (50% knockdown time), House fly (housefly [2]): 388 s
mortality, House fly (housefly [2]): 60%
mortality at 500 ppm (housefly [3]; [5]): 100%
mortality, Northern house mosquito (northern house mosquito; [6]): 70%
KT50 (50% knockdown time), Northern house mosquito (northern house mosquito; [7]): 360 s
LD50 (median lethal dose) (housefly [1]): 0.045 μg/female

CC1(C)C(C(=O)OCC=C(Cl)Cc2ccccc2)C12Cc1ccccc1C2 (centres unmarked) [Compound 25]
mortality at 500 ppm (housefly [3]; [5]): 100%
LC50 (tobacco cutworm; [12]): 4 µg/mL (≈ 10.5 µM)

CC1(C)C(C(=O)OC(C#N)c2cccc(Oc3ccccc3)c2)C12Cc1ccc(Cl)cc1C2 (centres unmarked) [Compound 3]
mortality at 500 ppm (housefly [3]; [5]): 100%
mortality at 50 ppm (green rice leafhopper; [8]): 100%
mortality at 50 ppm (green rice leafhopper; [9]): 100%
mortality at 50 ppm (green rice leafhopper; [10]): 100%
LC50 (tobacco cutworm; [12]): 3.3 µg/mL (≈ 7.21 µM)
LD50 (median lethal dose) (housefly [1]): 0.0076 μg/female

CC1(C)C(C(=O)OC(C#N)c2cccc(Oc3ccccc3)c2)C12C=Cc1ccccc12 (centres unmarked) [drawing 63, reference compound]
LC50 (tobacco cutworm; [4]): 46.1 µg/mL (≈ 109 µM)

CC1(C)C(C(=O)OC(C#N)c2cccc(Oc3ccccc3)c2)C12Cc1c(F)c(F)c(F)c(F)c1C2 (centres unmarked) [Compound 1]
mortality at 500 ppm (housefly [3]; [5]): 100%
mortality at 50 ppm (green rice leafhopper; [8]): 100%
mortality at 50 ppm (green rice leafhopper; [9]): 100%
mortality at 50 ppm (green rice leafhopper; [10]): 86%
LC50 (tobacco cutworm; [12]): 3.5 µg/mL (≈ 7.06 µM)
LD50 (median lethal dose) (housefly [1]): 0.0052 μg/female

CC1(C)C(C(=O)OC(C#N)c2ccc(F)c(Oc3ccccc3)c2)C12Cc1ccccc1C2 (centres unmarked) [Compound 7]
mortality at 500 ppm (housefly [3]; [5]): 100%
mortality at 50 ppm (green rice leafhopper; [8]): 100%
mortality at 50 ppm (green rice leafhopper; [9]): 100%
mortality at 50 ppm (green rice leafhopper; [10]): 100%
LC50 (tobacco cutworm; [12]): 1.8 µg/mL (≈ 4.08 µM)
LD50 (median lethal dose) (housefly [1]): 0.0044 μg/female

C=CCc1cccc2c1CCC2OC(=O)C1C(C)(C)C12Cc1ccc(F)cc1C2 (centres unmarked) [Compound 26]
mortality at 500 ppm (housefly [3]; [5]): 100%

CC1(C)C(C(=O)OC(C#N)c2cccc(Oc3ccccc3)c2)C12Cc1ccc(Br)cc1C2 (centres unmarked) [Compound 5]
mortality at 500 ppm (housefly [3]; [5]): 100%
mortality at 50 ppm (green rice leafhopper; [8]): 100%
mortality at 50 ppm (green rice leafhopper; [9]): 100%
mortality at 50 ppm (green rice leafhopper; [10]): 100%
LC50 (tobacco cutworm; [12]): 7.2 µg/mL (≈ 14.3 µM)
LD50 (median lethal dose) (housefly [1]): 0.018 μg/female

CC(C)=CC1C(C(=O)OCc2cccc(Oc3ccccc3)c2)C1(C)C (centres unmarked) [drawing 58, reference compound]
LD50 (median lethal dose) (housefly [1]): 0.26 μg/female

CC1(C)C(C(=O)O[C@H](C#N)c2cccc(Oc3ccccc3)c2)C12Cc1ccccc1C2 (some centres unmarked) [Compound 8]
mortality at 500 ppm (housefly [3]; [5]): 100%
LC50 (tobacco cutworm; [12]): 1.1 µg/mL (≈ 2.6 µM)
LD50 (median lethal dose) (housefly [1]): 0.0032 μg/female

CC1(C)C(C(=O)OC(C#N)c2cccc(Oc3ccc(Br)cc3)c2)C12Cc1ccccc1C2 (centres unmarked) [Compound 16]
mortality at 500 ppm (housefly [3]; [5]): 100%
mortality at 50 ppm (green rice leafhopper; [8]): 100%
mortality at 50 ppm (green rice leafhopper; [9]): 100%
mortality at 50 ppm (green rice leafhopper; [10]): 97%

CC1(C)C(C(=O)OC(C#N)c2cccc(Oc3ccccc3)c2)C12C=Cc1ccccc12 (centres unmarked) [drawing 61, reference compound]
LD50 (median lethal dose) (housefly [1]): 0.16 μg/female

CC1(C)C(C(=O)OC2C=C(Cc3ccccc3)C(=O)C2)C12Cc1ccccc1C2 (centres unmarked) [Compound 29]
KT50 (50% knockdown time), House fly (housefly [2]): 298 s
mortality, House fly (housefly [2]): 40%
mortality at 500 ppm (housefly [3]; [5]): 100%
mortality, Northern house mosquito (northern house mosquito; [6]): 70%
KT50 (50% knockdown time), Northern house mosquito (northern house mosquito; [7]): 296 s

CC1(C)C(C(=O)O[C@H](C#N)c2cccc(Oc3ccccc3)c2)C12Cc1ccccc1C2 (some centres unmarked) [Compound 9]
Mortality (housefly [3]; 500 ppm, 48 hours, adult female houseflies): 100%
LC50 (median lethal concentration) (tobacco cutworm; tobacco cutworm, in vivo): 0.6 ppm
LD50 (median lethal dose) (housefly [1]): 0.0013 μg/female

CC1(C)C(C(=O)OC(C#N)c2cccc(Oc3ccccc3)c2)C12Cc1ccc(F)cc1C2 (centres unmarked) [Compound 4]
mortality at 500 ppm (housefly [3]; [5]): 100%
LC50 (tobacco cutworm; [12]): 1 µg/mL (≈ 2.26 µM)
LD50 (median lethal dose) (housefly [1]): 0.0042 μg/female

C#CC(C#C)OC(=O)C1C(C)(C)C12Cc1ccccc1C2 (centres unmarked) [Compound 24]
mortality at 500 ppm (housefly [3]; [5]): 100%

CC1(C)C(C(=O)OCc2c(Cl)c(Cl)c(Cl)c(Cl)c2Cl)C12Cc1ccccc1C2 (centres unmarked) [Compound 28]
mortality at 500 ppm (housefly [3]; [5]): 100%
LC50 (tobacco cutworm; treated artificial diet, third-instar larvae, 24 hours, read-out: LC50 (median lethal concentration)): 8.7 µg/mL (≈ 18.2 µM)

CC1(C)C(C(=O)OCN2C(=O)C3=C(CCCC3)C2=O)C12Cc1ccccc1C2 (centres unmarked) [Compound 12]
KT50 (50% knockdown time), House fly (housefly [2]): 125 s
mortality, House fly (housefly [2]): 10%
mortality at 500 ppm (housefly [3]; [5]): 100%
mortality, Northern house mosquito (northern house mosquito; [6]): 95%
KT50 (50% knockdown time), Northern house mosquito (northern house mosquito; [7]): 400 s

CC1(C)C(C(=O)OCc2cccc(Oc3ccccc3)c2)C12Cc1ccccc1C2 (centres unmarked) [Compound 21]
mortality at 500 ppm (housefly [3]; [5]): 100%

CC1(C)C(C(=O)OC(C#N)c2cccc(Oc3ccccc3)c2)C12Cc1cccc(F)c1C2 (centres unmarked) [Compound 6]
mortality at 500 ppm (housefly [3]; [5]): 100%

C#CC(OC(=O)C1C(C)(C)C12Cc1ccccc1C2)C(C)=CCC (centres unmarked) [Compound 14]
mortality at 500 ppm (housefly [3]; [5]): 100%

CC1(C)C(C(=O)OCc2coc(Cc3ccccc3)c2)C12Cc1ccccc1C2 (centres unmarked) [Compound 11]
mortality at 500 ppm (housefly [3]; [5]): 100%
LD50 (median lethal dose) (housefly [1]): 0.023 μg/female

CC1(C)C(C(=O)OCc2cccc(Cc3ccccc3)c2)C12Cc1ccccc1C2 (centres unmarked) [Compound 13]
mortality at 500 ppm (housefly [3]; [5]): 100%
mortality at 50 ppm (green rice leafhopper; [8]): 100%
mortality at 50 ppm (green rice leafhopper; [9]): 93%
mortality at 50 ppm (green rice leafhopper; [10]): 100%

CC1(C)C(C(=O)OC(C#N)c2cccc(Oc3ccccc3)c2)C12C=Cc1ccccc12 (centres unmarked) [drawing 64, reference compound]
KT50 (50% knockdown time), House fly (housefly [2]): > 600 s
KT50 (50% knockdown time), Northern house mosquito (northern house mosquito; [7]): 600 s
mortality, Northern house mosquito (northern house mosquito; [11]): 50%
